Assay [1] relates to Mus musculus. The assay is described as follows: Evaluated for antimalarial activity against Plasmodium berghei in mice (Mus musculus) at 90 mg/kg; inactive. The assay is classed as functional, organism-based. On the set-up: dose 90 mg/kg.
Assay [2] has as its system Mus musculus. Briefly: Evaluated for antimalarial activity against Plasmodium berghei in mice (Mus musculus) at 90 mg/kg; active. More on the design: dose 90 mg/kg. Type of assay: functional, organism-based.
In assay [3] the test system is Mus musculus. The assay is described as follows: Evaluated for antimalarial activity against Plasmodium berghei in mice (Mus musculus) at 30 mg/kg on day 6. Type of assay: functional.

Active and inactive are the calls of the source. The rule behind the calls is not given here.

Take `C=C(c1ccccc1)C1(C)COC2(CCCC2)OO1` (stereo unspecified): the outcome with Mus musculus [1] was inactive.
For the compound `C=C(c1ccc(F)cc1)C1COC2(CCCC2)OO1` (stereo unspecified), the outcome with Mus musculus [2] was Active.
Regarding `C=C(c1ccc(Cl)cc1)C1COC2(CCCC2)OO1` (stereo unspecified), the outcome in the assay on Mus musculus [2] was Active. The Suppression in the assay on Mus musculus [3] is given as more than 90%.
For the compound `C=C(c1ccccc1)C1(C)COC2(CCCCC2)OO1` (stereo unspecified), the result with Mus musculus [1] was inactive.
As for `C=C(c1ccc(OC)cc1)C1COC2(CCCCC2)OO1` (stereo unspecified), the result in the assay on Mus musculus [1] was inactive.
For the compound `C=C(c1ccc(F)cc1)C1COC2(CCCCC2)OO1` (stereo unspecified), in the assay with Mus musculus [2], the result was Active.
For `C=C(c1ccc(C)cc1)C1COC2(CCCCC2)OO1` (stereo unspecified), the result with Mus musculus [1] was inactive.
With `C=C(c1ccc(OC)cc1)C1COC2(CCCC2)OO1` (stereo unspecified), the result in the assay with Mus musculus [2] was Active.
Turning to `C=C(c1ccc(Cl)cc1)C1(C)COC2(CCCC2)OO1` (stereo unspecified), in the assay with Mus musculus [1], the result was inactive.
As to `C=C(c1ccc(Cl)cc1)C1COC2(CCCCC2)OO1` (stereo unspecified), the outcome in the assay with Mus musculus [2] was Active.
Still for that read-out and setting: to `C=C(c1ccc(C)cc1)C1COC2(CCCC2)OO1` (stereo unspecified) belongs “Active”.
As for `C=C(c1ccccc1)C1COC2(CCCC2)OO1` (stereo unspecified), the result with Mus musculus [2] was Active. Further, the Suppression with Mus musculus [3] is recorded as more than 90%.
On to `C=C(c1ccccc1)C1COC2(CCCCC2)OO1` (stereo unspecified), for which the outcome in the assay on Mus musculus [1] was inactive.
Same read-out and setting: the same measure for `C=C(c1ccc(Cl)cc1)C1(C)COC2(CCCCC2)OO1` (stereo unspecified): “inactive”.

Source of the values: ChEMBL document CHEMBL1128628, “in vivo potent antimalarial 1,2,4-trioxanes: Synthesis and activity of 8-(-arylvinyl)-6,7,10-trioxaspiro[4,5]decanes and 3-(-arylvinyl)-1,2,5-trioxaspiro[5,5]undecanes against Plasmodium berghei in mice” (1995).
